Laboratory results taken from ChEMBL document CHEMBL1201862, “PubChem BioAssay data set” (2004).
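Compound exposure: 48 hours, 5 concentrations, 96-well plates. Here, GI50 denotes the concentration required for 50% inhibition of growth.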 The source made the active and inactive calls. No stated cut-off is given here; in the data, active = GI50 up to about 1.1 µM and inactive = higher.

Key:
Test in all cases: NCI tumour cell line growth inhibition, 48 h
[1] = tested on: Malme-3M
[2] = tested on: DMS-114
[3] = tested on: NCI-H460
[4] = tested on: IGROV-1
[5] = tested on: TK-10
[6] = tested on: OVCAR-5
[7] = tested on: UACC-62
[8] = tested on: CCRF-CEM
[9] = tested on: UO-31
[10] = tested on: HCC 2998
[11] = tested on: SNB-75
[12] = tested on: OVCAR-3
[13] = tested on: A549
[14] = tested on: HT-29
[15] = tested on: K562
[16] = tested on: NCI-H23
[17] = tested on: DU-145
[18] = tested on: NCI/ADR-RES
[19] = tested on: MCF7

| Structure (SMILES) | GI50 [1] | GI50 [2] | GI50 [3] | GI50 [4] | GI50 [5] | GI50 [6] | GI50 [7] | GI50 [8] | GI50 [9] | GI50 [10] | GI50 [11] | GI50 [12] | GI50 [13] | GI50 [14] | GI50 [15] | GI50 [16] | GI50 [17] | GI50 [18] | GI50 [19] |
| --- | --- | --- | --- | --- | --- | --- | --- | --- | --- | --- | --- | --- | --- | --- | --- | --- | --- | --- | --- |
| COc1ccc(CCc2ccccc2CC(=O)O)cc1 | > 100 µM (inactive) | > 100 µM (inactive) | > 100 µM (inactive) | > 100 µM (inactive) | > 100 µM (inactive) | > 100 µM (inactive) | > 100 µM (inactive) | > 100 µM (inactive) | > 100 µM (inactive) | > 100 µM (inactive) | > 100 µM (inactive) | > 100 µM (inactive) | > 100 µM (inactive) | > 100 µM (inactive) | > 100 µM (inactive) | > 100 µM (inactive) |  |  |  |
| OC1=CN=COc2ccccc21 | > 100 µM (inactive) | > 100 µM (inactive) | > 100 µM (inactive) | > 100 µM (inactive) | > 100 µM (inactive) |  | > 100 µM (inactive) | > 100 µM (inactive) | 34.7 µM (inactive) | > 100 µM (inactive) | 32.3 µM (inactive) | > 100 µM (inactive) | > 100 µM (inactive) | > 100 µM (inactive) | > 100 µM (inactive) | > 100 µM (inactive) |  |  |  |
| CCCCCCCCCCCCCP(=O)(NCC(N)=O)OCC (configuration not stated) | 17.7 µM (inactive) | 15.2 µM (inactive) | 20.6 µM (inactive) | 18.5 µM (inactive) | 18.7 µM (inactive) | 19.5 µM (inactive) | 16.3 µM (inactive) | 22.6 µM (inactive) | 13.6 µM (inactive) | 20.2 µM (inactive) | 5.31 µM (inactive) | 15.3 µM (inactive) | 20.3 µM (inactive) | 17.2 µM (inactive) |  | 24.3 µM (inactive) |  |  |  |
| CC(=O)CC(=O)NC=O | > 100 µM (inactive) | > 100 µM (inactive) | > 100 µM (inactive) | > 100 µM (inactive) | > 100 µM (inactive) | > 100 µM (inactive) | > 100 µM (inactive) | > 100 µM (inactive) | > 100 µM (inactive) | > 100 µM (inactive) | > 100 µM (inactive) | > 100 µM (inactive) | > 100 µM (inactive) | > 100 µM (inactive) | > 100 µM (inactive) | > 100 µM (inactive) |  |  |  |
| O=C(Cc1ccccc1)NS(=O)(=O)c1ccccc1 | > 100 µM (inactive) | > 100 µM (inactive) | > 100 µM (inactive) | > 100 µM (inactive) | > 100 µM (inactive) | > 100 µM (inactive) | > 100 µM (inactive) | > 100 µM (inactive) | > 100 µM (inactive) | > 100 µM (inactive) | > 100 µM (inactive) | > 100 µM (inactive) | > 100 µM (inactive) | > 100 µM (inactive) | > 100 µM (inactive) | > 100 µM (inactive) |  |  |  |
| CC[C@@H]1OC2(C)CC(S(=O)(=O)c3ccccc3)CC1O2 (some centres not stated) | > 100 µM (inactive) | > 100 µM (inactive) | > 100 µM (inactive) | > 100 µM (inactive) |  | > 100 µM (inactive) | > 100 µM (inactive) | > 100 µM (inactive) | > 100 µM (inactive) | > 100 µM (inactive) | > 100 µM (inactive) | > 100 µM (inactive) | > 100 µM (inactive) | > 100 µM (inactive) | > 100 µM (inactive) | > 100 µM (inactive) |  |  |  |
| CC(=O)C1CC2(c3ccccc3)C(=O)c3ccccc3N2O1 (configuration not stated) | > 100 µM (inactive) | > 100 µM (inactive) |  | > 100 µM (inactive) |  |  | > 100 µM (inactive) | > 100 µM (inactive) | > 100 µM (inactive) | > 100 µM (inactive) | > 100 µM (inactive) |  | > 100 µM (inactive) | > 100 µM (inactive) | > 100 µM (inactive) | > 100 µM (inactive) |  |  |  |
| COC1=C(C(=O)OC(C)(C)C)[C@]2(C)C(C(=O)OC(C)(C)C)C(OC)=C(C(=O)OC(C)(C)C)[C@]2(C)C1C(=O)OC(C)(C)C (some centres not stated) | > 100 µM (inactive) | 53.1 µM (inactive) | 78.2 µM (inactive) | > 100 µM (inactive) | > 100 µM (inactive) | > 100 µM (inactive) | > 100 µM (inactive) | 73.8 µM (inactive) | 85.3 µM (inactive) | > 100 µM (inactive) | > 100 µM (inactive) | 29.3 µM (inactive) | > 100 µM (inactive) | 63.2 µM (inactive) | 37.5 µM (inactive) | > 100 µM (inactive) |  |  |  |
| CC12C(=O)N(CCN)C(=O)C1C1c3ccccc3C2c2ccccc21 (configuration not stated) | > 100 µM (inactive) | > 100 µM (inactive) | > 100 µM (inactive) | > 100 µM (inactive) | > 100 µM (inactive) | > 100 µM (inactive) | > 100 µM (inactive) | > 100 µM (inactive) | > 100 µM (inactive) | > 100 µM (inactive) | 37.3 µM (inactive) | > 100 µM (inactive) | > 100 µM (inactive) | 58.3 µM (inactive) | > 100 µM (inactive) | > 100 µM (inactive) |  |  |  |
| Cn1c2ccccc2n2c(=O)c3c(c(C#N)c12)CCCC3 | > 100 µM (inactive) | > 100 µM (inactive) | > 100 µM (inactive) | > 100 µM (inactive) | > 100 µM (inactive) | > 100 µM (inactive) |  |  | > 100 µM (inactive) | > 100 µM (inactive) | 0.792 µM (active) | > 100 µM (inactive) | > 100 µM (inactive) | > 100 µM (inactive) | > 100 µM (inactive) | > 100 µM (inactive) |  |  |  |
| CCOC(=O)C(C)(C)Oc1ccc2c(-c3ccc(Cl)cc3)cc(=O)oc2c1 | > 100 µM (inactive) | > 100 µM (inactive) | > 100 µM (inactive) | > 100 µM (inactive) | > 100 µM (inactive) |  | > 100 µM (inactive) | > 100 µM (inactive) | > 100 µM (inactive) | > 100 µM (inactive) | 19.3 µM (inactive) | > 100 µM (inactive) | > 100 µM (inactive) | > 100 µM (inactive) | > 100 µM (inactive) | > 100 µM (inactive) |  |  |  |
| CC1SC2=NC3=C(c4ccccc4C3=O)C(c3ccc(F)cc3)N2C1=O (configuration not stated) | > 100 µM (inactive) | 95.7 µM (inactive) | > 100 µM (inactive) | > 100 µM (inactive) | > 100 µM (inactive) | > 100 µM (inactive) | 64.1 µM (inactive) | > 100 µM (inactive) | 38.9 µM (inactive) | > 100 µM (inactive) | 35.6 µM (inactive) | > 100 µM (inactive) | > 100 µM (inactive) | > 100 µM (inactive) | > 100 µM (inactive) | > 100 µM (inactive) |  |  |  |
| Nc1ccccc1[S+]([O-])c1ccccc1 (configuration not stated) | > 100 µM (inactive) | > 100 µM (inactive) | > 100 µM (inactive) | > 100 µM (inactive) | > 100 µM (inactive) | > 100 µM (inactive) | > 100 µM (inactive) | > 100 µM (inactive) | > 100 µM (inactive) | > 100 µM (inactive) | > 100 µM (inactive) | > 100 µM (inactive) | > 100 µM (inactive) |  | > 100 µM (inactive) | > 100 µM (inactive) |  |  |  |
| Nc1ccc(Nc2nc(F)nc(-c3c4ccccc4c4n3CCS4)n2)cc1 | 14.5 µM (inactive) | 17.1 µM (inactive) |  | 12.4 µM (inactive) | 19.6 µM (inactive) | 17.6 µM (inactive) |  | 6.56 µM (inactive) | 8.38 µM (inactive) | 22 µM (inactive) | 14.9 µM (inactive) | 19.3 µM (inactive) | 10.5 µM (inactive) |  | > 10 µM (inactive) | 16.2 µM (inactive) |  |  |  |
| O=C(NCCCCCCCCNC(=O)c1cccc2ccccc12)c1cccc2ccccc12 | 44.8 µM (inactive) | 42.6 µM (inactive) | 65.3 µM (inactive) | 20.4 µM (inactive) | 12.1 µM (inactive) | > 100 µM (inactive) | 21.2 µM (inactive) | > 100 µM (inactive) | 6.3 µM (inactive) | > 95.7 µM (inactive) | 4.61 µM (inactive) | 16.7 µM (inactive) | 34.2 µM (inactive) | > 100 µM (inactive) | > 100 µM (inactive) | 23.6 µM (inactive) | > 100 µM (inactive) | 28.3 µM (inactive) | 71.4 µM (inactive) |
| Cc1cc(Cl)ccc1NC1=NC(=O)C(CC(=O)Nc2ccc([N+](=O)[O-])cc2[N+](=O)[O-])S1 (configuration not stated) | 26.1 µM (inactive) | 19.9 µM (inactive) | 29.1 µM (inactive) | 32.3 µM (inactive) | 48.1 µM (inactive) | 24.2 µM (inactive) | 23.8 µM (inactive) | 23.4 µM (inactive) | 17.1 µM (inactive) | 39.6 µM (inactive) | 14.5 µM (inactive) | 23.6 µM (inactive) | 27.5 µM (inactive) | 37 µM (inactive) | 27.6 µM (inactive) | 20.9 µM (inactive) |  |  |  |
| C[C@@H]1C2=CC[C@@]3(C)C(CCC3[C@H](C)[C@H]3C[C@@]4(C)O[C@@](c5cccnc5)(O3)OC4(C)C)[C@@H]2C2OC2[C@@]12CCC(=O)O2 (some centres not stated) | 37.4 µM (inactive) | 33 µM (inactive) | 32 µM (inactive) | 76.6 µM (inactive) | 44.8 µM (inactive) | 57.4 µM (inactive) | 30.3 µM (inactive) | 31 µM (inactive) | 34.4 µM (inactive) | 37 µM (inactive) | 34 µM (inactive) | 24.1 µM (inactive) | 67.8 µM (inactive) | 34.6 µM (inactive) | 27.5 µM (inactive) | 34.2 µM (inactive) |  |  |  |
| CCC1(O)C(=O)OCc2c1cc1n(c2=O)Cc2cc3ccc(CO)cc3nc2-1 (configuration not stated) | 4.53 µM (inactive) | 1.82 µM (inactive) | 1.09 µM (active) | 12.2 µM (inactive) | > 95.3 µM (inactive) | 8.97 µM (inactive) | 0.757 µM (active) | 0.186 µM (active) | 3.81 µM (inactive) | 8.26 µM (inactive) | 2.18 µM (inactive) | 4.55 µM (inactive) | 6.04 µM (inactive) | 9.35 µM (inactive) | 4.3 µM (inactive) | 2.07 µM (inactive) |  |  |  |
